Measurements as given in US8921362B2, “6,7-dialkoxy quinazoline derivatives and methods of treating drug resistant and other tumors” (Natco Pharma Limited, priority 2008, dated 2014).
Counter-ions that a name gives are not always drawn. Like-named read-outs stand apart in the source and are kept apart here.

Columns and labels:
[1] = tested on: A549 and H1299 cells
Protocol: Solubilization of the cells by the addition of a detergent results in the liberation of the crystals, which are solubilized. The number of surviving cells is directly proportional to the level of the formazan product created. The color can then be quantified using a simple colorimetric assay. This assay was done using 0-1000 ng/ml concentrations of Erlotinib and the test compounds in A549 and H1299 cells.

[2] = target: ERBB2 (Homo sapiens, UniProt P04626); test: Down regulation of receptors, western blot in A549 cells; format: cell-based; design: endogenous in cells; host or cells: A549; details: FIG. 8
Protocol: (§1) Levels of Erb-1, Erb-2, Erb-3, Erb-4 and VEGFR were determined by western blot analysis.

[3] = target: ERBB4 (Homo sapiens, UniProt Q15303); test: as above; format: cell-based; design: endogenous in cells; host or cells: A549; details: FIG. 8
Protocol: as §1

[4] = tested on: A549 luciferase expressing cells; test: Lung tissue harvested from nude mice after treatment; format: in vivo; details: oral/ip routes, various concentrations, FIG. 4
[5] = tested on: A549 luciferase expressing cells; test: Nude mice implanted with A549 luciferase expressing cells; format: in vivo; details: oral and ip routes, FIGS. 6 & 7
[6] = 30 day repeated dose study; details: both sexes, dog, in vivo, po, beagle dogs, orally by capsule, read-out: no observed adverse effect level (NOAEL)
Protocol: The methods followed were as per CPMP/SWP/1042/99 (July 2000) and ICH S3A (March (1995)) guidelines. Prior to the 30 day repeated dose study, a dose range finding study was conducted, which included single dose MTD study followed by a 10 day repeated dose study. For the single dose MTD study, two dogs (1 male and 1 female) of beagle breed, obtained from Marshall's Farm, China, were used. The route of dosing was oral, by gelatin capsule. Based on the results of the dose range finding study, doses for the 30 days study were selected.
The 30 day repeated dose study employed 12 male and 12 female dogs (Marshall's Farm, China). The dogs were acclimatized for a minimum period of 2 weeks and randomly divided into four main groups (G1-G4), each group comprising of 3 dogs per sex. […]
(§2) The study also tracked body weight (weekly), food consumption (daily), opthalmological status (start and end), hematological and biochemical analyses (start and end), toxicokinetics analysis of plasma (start and end). At the end of the study, all dogs were euthanized by a humane and accepted procedure, subjected to a gross post-mortem examination, organ weights (absolute and relative) were determined, and histopathological examination was carried out.

[7] = tested on: H1299 and A549 cells; test: Matrigel invasion assay; format: cell-based, human; details: 48 hr treatment, FIG. 2
Protocol: The in vitro invasiveness of H1299 and A549 cells in the presence of various concentrations of NRC compounds (as determined by MTT assay) was assessed using a modified Boyden chamber assay. Cells were treated with these compounds for 48 hr. 1×10^6 cells were suspended in 600 μl of serum-free medium supplemented with 0.2% BSA and placed in the upper compartment of the transwell chambers (Corning Costar Fisher Scientific cat #07-200-158, Pittsburgh Pa.) coated with matrigel (0.7 mg/ml). The lower compartment of the chamber was filled with 200 μl of serum medium and the cells were allowed to migrate for 24 hr. After incubation, the cells were fixed and stained with Hema-3 and quantified as previously described (Mohanam et al. 1993). The migrated cells were quantified as percent invasion.

[8] = Acute oral gavage toxicity (MTD)
Protocol: (§3) 20 male and 20 female Swiss albino mice were randomly divided into four groups (G1-G4). Each group was 5 male and 5 female Swiss albino mice. […] G1 was treated with placebo and served as a control. […] The mid dose group animals (G3-treated with 500 mg/kg b.wt) were administered the dose formulation twice with a gap of approximately 1 hour. Animals from high dose group (G4-treated with 1000 mg/kg b.wt) received the dose formulation four times with a gap of approximately one hour.

[9] = Acute toxicity (LD0, LD50); format: in vivo; details: po, mice, single dose
Protocol: […]. The doses 500, 750, 1000 and 2000 mg/Kg were administered orally. Each group included 5 mice. […] The survived animals were autopsied for asserting the absorption of compound through g.i.t. The LD50 was determined according to the method described in Litchfield and Wilcoxon (J. Pharmacol. Exp. Ther. 1949, 96:99-113).

[10] = tested on: A549 human lung tumors; test: Subcutaneous lung tumors in nude mice; format: in vivo; details: 100 mg/Kg dose
Text: Nude mice were implanted with 2×10^6 A549 cells in the right hind limb flank.

[11] = in vivo; details: both, Swiss albino, mouse, po
[12] = po, Swiss Albino mice, suspended in 2% gum acacia
[13] = tested on: VEGFR; test: Down regulation of receptors, western blot in A549 cells; format: cell-based, human; details: FIG. 8
Protocol: as §1

[14] = in vivo; details: both, Swiss albino, mouse, po; remark: listed apart in the source
Protocol: as §3

[15] = Toxicokinetics in 30 day repeated dose study; format: in vivo, beagle dogs; details: for Tmax: beagle, dog, plasma, po, read-out: median Tmax
Protocol: The 30 day repeated dose study employed 12 male and 12 female dogs (Marshall's Farm, China). The dogs were acclimatized for a minimum period of 2 weeks and randomly divided into four main groups (G1-G4), each group comprising of 3 dogs per sex. The animals were dosed orally with capsules of NRC-2694A for a period of 30 consecutive days at dose levels of 10 mg/kg b.wt/day (G2-low dose), 20 mg/kg b.wt/day (G3-mid dose) and 40 mg/kg b. wt/day (G4-high dose). […] The control group (G1-0 mg/kg b. wt/day) animals were dosed by oral capsule with placebo.
as §2
The toxicokinetic parameters viz.

[16] = Acute oral gavage toxicity (MTD); details: G4, 1000 mg/kg body wt., rats
[17] = Cardiovascular parameters in telemetered dogs; format: in vivo; details: male Beagle dogs
Protocol: The study was conducted in accordance with ICH “S7A Safety Pharmacology Studies for Human Pharmaceuticals, Note for Guidance on Safety Pharmacology Studies for Human Pharmaceuticals, July 2001”. The doses tested were 0, 15, 30 and 60 mg/kg b.wt. given orally by gelatin capsule. Four male Beagle dogs, each implanted with a TL1IM2-D70-PCT transmitter (Data Sciences International, USA), were used for the study. During the study, the dogs were administered 4 oral treatments representing placebo and all test substance treatment groups with a three day (˜72 hour) wash-out period between each administration, using a Latin square cross-over design.
On dosing days, the telemetered dogs were observed once before commencement of data collection, continuously through 2 hours post-dose remotely and ˜8 hours post-dose for changes in behaviour. Cardiovascular parameters (systolic, diastolic and mean blood pressure, pulse pressure and heart rate) were recorded continuously for ˜60 minutes before dosing and up to 24 hours after dosing. Systolic, diastolic and mean blood pressures, pulse pressure and heart rate were obtained from the femoral artery waveform. Electrocardiograms were recorded continuously for ˜60 minutes before dosing and up to 24 hours after dosing. […] Heart rate and QT intervals were determined from the ECG's.

[18] = Functional observational battery (FOB); format: in vivo, Wistar rats; details: 75, 125 and 250 mg/kg b.wt single oral dose, 60-120 min post treatment
Protocol: The study was conducted in accordance with “[…] Safety Pharmacology Studies for Human Pharmaceuticals, ICH” July 2001, and as per this study protocol. […] Rats that had been fasted for 16 to 18 hours (access to water was not interrupted) were dosed with the compound or water. The rats were administered the compound in an aqueous formulation at three levels, 75, 125 and 250 mg/kg b.wt, as a single oral dose by gavage. The control group received water. The rats were subjected to the FOB 60-120 min. after drug administration.
Animals were subjected to the FOB one at a time except for the multiple activity cage where four animals were placed in four different cages simultaneously. Once complete, the animals were returned to their home cage and the cage placed back on the stand.

[19] = tested on: Salmonella typhimurium (TA 98, TA 100, TA 102, TA 1535 and TA 1537); test: Ames bacterial reverse mutation assay; format: cell-based; details: 0.0125-1.2500 mg/plate, with and without S9
Protocol: The present study was conducted by the direct plate incorporation method with five tester strains of Salmonella typhimurium (TA 98, TA 100, TA 102, TA 1535 and TA 1537). […] Simultaneously, negative control cultures received DMSO and the respective positive controls received the mutagens 2-Amino anthracene, 2-Nitrofluorene, Sodium azide, 9-Aminoacridine and Mitomycin C (Sigma, St. Louis). In order to study the role of metabolic activation, cultures were incubated both with and without S9 mixture. The induction of Histidine positive colonies was computed and results were statistically treated for comparison.

[20] = Respiratory function, whole body plethysmograph; format: in vivo, Wistar rats; details: 75, 125 and 250 mg/kg body weight, oral, 3 hours
Protocol: This study evaluated the effect of NRC-2694A monohydrochloride on respiratory function in conscious Wistar rats following administration of a single dose using a whole body plethysmograph. The study was conducted in accordance with “S7A Safety Pharmacology Studies for Human Pharmaceuticals, ICH” issued July 2001. The study used a parallel design with one vehicle and three test item treated groups. […] Male Wistar rats were placed in plethysmography chambers and baseline respiratory parameters were recorded for 30 minutes. Following drug administration respiratory parameters were recorded continuously for 3 hours.

Sequence of ERBB2 (P04626 23-1255): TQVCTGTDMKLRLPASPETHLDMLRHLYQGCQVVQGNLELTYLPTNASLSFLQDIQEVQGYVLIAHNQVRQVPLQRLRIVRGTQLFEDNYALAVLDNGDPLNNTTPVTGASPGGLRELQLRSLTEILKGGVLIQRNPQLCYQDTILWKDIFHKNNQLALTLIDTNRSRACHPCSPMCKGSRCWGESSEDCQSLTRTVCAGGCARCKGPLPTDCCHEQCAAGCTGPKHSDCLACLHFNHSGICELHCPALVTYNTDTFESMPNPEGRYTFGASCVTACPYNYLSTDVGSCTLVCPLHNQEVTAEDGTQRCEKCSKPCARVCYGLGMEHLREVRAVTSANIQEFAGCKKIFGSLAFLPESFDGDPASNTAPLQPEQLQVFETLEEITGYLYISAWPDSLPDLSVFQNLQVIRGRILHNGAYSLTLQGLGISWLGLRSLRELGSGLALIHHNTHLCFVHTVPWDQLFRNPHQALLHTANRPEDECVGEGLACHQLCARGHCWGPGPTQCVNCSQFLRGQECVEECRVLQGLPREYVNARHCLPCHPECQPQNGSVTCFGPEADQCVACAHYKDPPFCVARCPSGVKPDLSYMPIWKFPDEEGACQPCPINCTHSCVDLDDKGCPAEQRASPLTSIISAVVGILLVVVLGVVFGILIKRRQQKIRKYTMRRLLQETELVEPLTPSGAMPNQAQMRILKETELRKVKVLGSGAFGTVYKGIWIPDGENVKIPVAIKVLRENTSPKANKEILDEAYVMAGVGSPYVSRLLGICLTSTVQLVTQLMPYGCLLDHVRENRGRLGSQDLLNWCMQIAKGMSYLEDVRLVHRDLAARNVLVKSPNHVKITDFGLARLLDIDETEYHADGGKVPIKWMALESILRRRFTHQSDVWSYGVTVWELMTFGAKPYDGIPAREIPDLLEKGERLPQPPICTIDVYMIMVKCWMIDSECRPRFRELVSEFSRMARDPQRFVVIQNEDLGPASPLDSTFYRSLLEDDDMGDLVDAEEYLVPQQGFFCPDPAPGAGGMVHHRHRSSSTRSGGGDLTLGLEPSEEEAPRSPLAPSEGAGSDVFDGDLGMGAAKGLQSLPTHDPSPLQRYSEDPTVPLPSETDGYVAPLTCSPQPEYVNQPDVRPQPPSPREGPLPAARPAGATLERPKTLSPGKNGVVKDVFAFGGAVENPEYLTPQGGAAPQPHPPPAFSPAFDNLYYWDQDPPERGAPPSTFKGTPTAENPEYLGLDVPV
Sequence of ERBB4 (Q15303 26-1308): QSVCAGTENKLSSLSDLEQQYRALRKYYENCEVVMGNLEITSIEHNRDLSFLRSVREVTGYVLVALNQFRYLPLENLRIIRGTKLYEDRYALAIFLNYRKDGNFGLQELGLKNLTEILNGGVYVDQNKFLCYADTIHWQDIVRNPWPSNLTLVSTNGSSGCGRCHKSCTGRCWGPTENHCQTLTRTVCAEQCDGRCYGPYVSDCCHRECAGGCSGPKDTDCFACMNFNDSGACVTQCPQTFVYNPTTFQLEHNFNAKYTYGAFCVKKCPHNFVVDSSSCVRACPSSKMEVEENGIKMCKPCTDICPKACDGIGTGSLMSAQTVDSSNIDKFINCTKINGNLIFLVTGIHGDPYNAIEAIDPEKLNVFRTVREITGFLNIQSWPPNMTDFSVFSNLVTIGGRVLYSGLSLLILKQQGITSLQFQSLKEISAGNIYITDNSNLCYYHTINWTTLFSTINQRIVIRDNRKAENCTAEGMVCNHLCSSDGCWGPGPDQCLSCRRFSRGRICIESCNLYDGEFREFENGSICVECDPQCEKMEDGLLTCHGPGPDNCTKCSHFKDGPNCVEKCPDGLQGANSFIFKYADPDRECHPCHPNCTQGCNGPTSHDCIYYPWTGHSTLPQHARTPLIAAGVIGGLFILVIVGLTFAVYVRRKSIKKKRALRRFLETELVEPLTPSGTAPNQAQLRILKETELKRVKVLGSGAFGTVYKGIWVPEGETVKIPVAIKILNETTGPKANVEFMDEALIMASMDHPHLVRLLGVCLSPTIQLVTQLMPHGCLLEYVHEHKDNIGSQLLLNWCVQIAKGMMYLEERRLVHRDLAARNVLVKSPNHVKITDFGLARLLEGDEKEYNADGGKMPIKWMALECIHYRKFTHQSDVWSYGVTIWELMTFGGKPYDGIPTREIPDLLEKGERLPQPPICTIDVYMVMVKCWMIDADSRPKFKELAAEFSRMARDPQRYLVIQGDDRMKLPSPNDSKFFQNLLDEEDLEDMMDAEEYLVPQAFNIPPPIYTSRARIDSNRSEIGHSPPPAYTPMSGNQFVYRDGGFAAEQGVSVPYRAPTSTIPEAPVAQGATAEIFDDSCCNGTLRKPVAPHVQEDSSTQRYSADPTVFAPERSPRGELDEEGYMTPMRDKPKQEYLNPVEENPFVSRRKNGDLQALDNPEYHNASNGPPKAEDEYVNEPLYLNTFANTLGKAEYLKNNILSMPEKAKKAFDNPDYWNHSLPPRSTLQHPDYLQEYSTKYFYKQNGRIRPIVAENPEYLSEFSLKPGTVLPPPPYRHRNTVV

SMILES: C#Cc1cccc(Nc2ncnc3cc(OCCOC)c(OCCOC)cc23)c1 [Erlotinib HCl, N-(3-Ethylnylphenyl)-6,7-bis(2-methoxyethoxy)-4-quinazolinamine]
- IC50 [1]: 0.836 µg/mL
- Erb B2 levels [2]: no such indication was seen
- Erb B4 levels [3]: no such indication was seen
- residual tumors in harvested lungs [4]: tumors were still present
- tumors at the end of 42 days treatment [5]: residual tumors were still present
- NOAEL at 30 days [6]: 5 mg/kg/day
- invasion [7]: dose dependent decrease in invasion
- MTD at 14 days ([8]; both, Swiss albino, mouse, in vivo, po): 500 mg/kg
- LD50 at 14 days ([9]; both sexes, mouse, in vivo): 805 mg/kg
- LD0 ([9]; no mortality at end of 7 days): 500 mg/kg
- tumor regression [10]: tumors were still present
- MTD at 72 h [11]: 500 mg/kg
- MTD [12]: 500 mg/kg
- VEGFR levels [13]: no such indication was seen

SMILES: C#Cc1cccc(Nc2ncnc3cc(OC)c(OCCCN4CCOCC4)cc23)c1.Cl [NRC-2694 monohydrochloride, N-(3-ethynylphenyl)-7-methoxy-6-[3-(4-morpholinyl)propoxy]-4-quinazolinamine mono hydrochloride]
- MTD at 14 days [14]: 1000 mg/kg
- Tmax ([15]; day 1, female, 10 mg/kg): 2 h
- Tmax ([15]; day 1, female, 40 mg/kg): 4 h
- Tmax ([15]; day 1, male, 10 mg/kg): 2 h
- Tmax ([15]; day 1, male, 20 mg/kg): 3 h
- Tmax ([15]; day 1, male, 40 mg/kg): 2 h
- Tmax ([15]; day 30, female, 20 mg/kg): 4 h
- Cmax ([15]; three dose levels, male and female dogs): dose-dependent change in the Cmax
- chromodacryoorhea (animals affected) [16]: 10/10
- mild to severe lethargy (animals affected) [16]: 10/10
- piloerection (animals affected) [16]: 10/10
- ptosis (animals affected) [16]: 4/10
- weakness (animals affected) [16]: 1/10
- cardiovascular parameters (blood pressure, pulse pressure, heart rate, QT, QTcf) ([17]; 15, 30 and 60 mg/kg b.wt. oral): no significant negative effects on cardiovascular parameters
- no observed effect level ([17]; cardiovascular parameters, oral): 60 mg/kg b.wt.
- NOAEL at 30 days [6]: 10 mg/kg/day
- toxic signs or mortality ([8]; 250 mg/kg and 500 mg/kg, oral gavage, mice): did not produce any toxic signs or mortality
- functional observational battery [18]: did not show any adverse effects at the tested doses
- mutagenicity (His revertant colonies) [19]: non-mutagenic
- respiratory rate, tidal volume, minute volume, and Penh [20]: did not influence any of the observed parameters
